Among the data in ChEMBL document CHEMBL4418495, “Entpd5 inhibitors” (2012) are inhibition and Activity values, retold here.

The target in assay [1] is T1, Ectonucleoside triphosphate diphosphohydrolase 5 (Mus musculus) (UniProt Q9WUZ9).
T1 sequence (whole entry): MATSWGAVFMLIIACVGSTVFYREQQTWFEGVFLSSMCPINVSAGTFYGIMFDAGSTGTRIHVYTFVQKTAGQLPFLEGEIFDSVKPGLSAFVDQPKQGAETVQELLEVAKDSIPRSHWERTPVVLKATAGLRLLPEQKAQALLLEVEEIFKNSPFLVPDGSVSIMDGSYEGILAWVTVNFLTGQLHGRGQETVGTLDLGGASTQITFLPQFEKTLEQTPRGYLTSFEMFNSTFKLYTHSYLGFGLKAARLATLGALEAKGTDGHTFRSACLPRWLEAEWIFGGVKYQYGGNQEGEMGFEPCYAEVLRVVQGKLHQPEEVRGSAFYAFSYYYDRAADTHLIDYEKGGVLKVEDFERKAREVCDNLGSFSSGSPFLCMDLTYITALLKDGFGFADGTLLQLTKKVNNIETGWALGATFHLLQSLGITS
Nature of the assay: Inhibition of ENTPD5 in PTEN knockout mouse MEF cells assessed as induction of ER stress by measuring increase in GRP78/BiP expression at 30 uM incubated for 24 hrs by Western blotting analysis. The assay is classed as cell-based.

In assay [2] the test system is LNCaP. The assay can be described thus: Antitumor activity against human LNCAP cells xenografted in mouse assessed as induction of tumor shrinkage at 1 to 100 mg/kg, ip dosed every other day and measured after 6 weeks by microscopy. The assay is classed as functional, organism-based. On the technique in general: Xenograft models place foreign cells or tissue in a host animal.

The test system of assay [3] is LNCaP. Nature of the assay: Antitumor activity against human LNCAP cells xenografted in mouse assessed as reduction in cells left in matrigels at 1 to 100 mg/kg, ip dosed every other day and measured after 6 weeks by hematoxylin and eosin staining based microscopy. It is filed as functional, organism-based.
For assay [4], the target named is T2, Nucleoside diphosphate phosphatase ENTPD5 (Homo sapiens) (UniProt O75356).
T2 sequence (whole entry): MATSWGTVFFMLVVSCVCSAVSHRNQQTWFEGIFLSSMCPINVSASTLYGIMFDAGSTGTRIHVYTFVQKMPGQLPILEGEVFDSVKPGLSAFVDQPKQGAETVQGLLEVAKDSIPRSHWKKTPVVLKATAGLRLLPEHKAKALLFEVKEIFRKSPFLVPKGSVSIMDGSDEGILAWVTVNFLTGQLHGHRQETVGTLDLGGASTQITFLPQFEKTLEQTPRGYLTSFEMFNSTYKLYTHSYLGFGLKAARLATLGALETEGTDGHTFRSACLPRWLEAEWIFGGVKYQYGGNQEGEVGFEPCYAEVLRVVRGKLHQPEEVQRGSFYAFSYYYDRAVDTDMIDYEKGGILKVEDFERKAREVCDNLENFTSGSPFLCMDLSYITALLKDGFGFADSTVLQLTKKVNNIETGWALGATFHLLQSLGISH
Nature of the assay: Inhibition of human recombinant ENTPD5 expressed in insect cells assessed as reduction in UDP hydrolysis at 1 uM incubated for 1 hr in presence of UMP, GTP and ATP by Escherichia coli UMP kinase pyrH catalyzed UMP phosphorylation coupled luciferase assay.

The target in assay [5] is T2, Nucleoside diphosphate phosphatase ENTPD5 (Homo sapiens). The assay can be described thus: Inhibition of human recombinant ENTPD5 expressed in insect cells assessed as reduction in UDP hydrolysis up to 10 uM incubated for 1 hr in presence of UMP, GTP and ATP by Escherichia coli UMP kinase pyrH catalyzed UMP phosphorylation coupled luciferase assay.
For assay [6], the target named is T3, Uridylate kinase (Escherichia coli (strain K12)) (UniProt P0A7E9).
T3 sequence (whole entry): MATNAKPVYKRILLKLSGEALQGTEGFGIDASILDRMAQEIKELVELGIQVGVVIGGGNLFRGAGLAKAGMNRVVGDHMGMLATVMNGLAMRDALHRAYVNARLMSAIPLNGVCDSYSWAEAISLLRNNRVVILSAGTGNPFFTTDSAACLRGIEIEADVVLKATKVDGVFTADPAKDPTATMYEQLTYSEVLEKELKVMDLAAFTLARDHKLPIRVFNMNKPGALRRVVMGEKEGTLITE
Nature of the assay: Inhibition of recombinant Escherichia coli UMP kinase pyrH catalyzed UMP phosphorylation in presence of GTP and ATP incubated for 1 hr by luminescence based assay.

Assay [7] concerns the target T2, Nucleoside diphosphate phosphatase ENTPD5 (Homo sapiens). Nature of the assay: Inhibition of human recombinant ENTPD5 expressed in insect cells assessed as reduction in reduction in UDP hydrolysis by measuring inorganic phosphate release incubated for 1 hr by malachite green based assay.

Activity calls are given as the source filed them.

Take `O=C(Oc1ccc2ccccc2c1)c1ccc2c(c1)C1C=CCC1C(C(=O)O)N2` (stereo not drawn): the inhibition result in assay [1], in assay [4] and in assay [7] was “Active” in each case. Also, the result in assay [2] and in assay [3] was Active. Further, the inhibition result in assay [5] is “Dose-dependent effect”. Besides, the inhibition entry in assay [6] is “inactive”.

For the molecule `O=C1/C(=C/c2ccc(O)cc2O)CCC/C1=C\c1ccc(O)cc1O`, the inhibition result in assay [1], in assay [4] and in assay [7] was “Active” each time. Also, the result in assay [2] and in assay [3] was Active. The inhibition result in assay [5] is “Dose-dependent effect”. In addition, the inhibition result in assay [6] was “inactive”.

As for `O=C1NC(=S)NC(=O)C1=Cc1ccc(-c2ccc(Br)cc2)o1`, the inhibition entry in assay [1], in assay [4] and in assay [7] was “Active” throughout. Also, the outcome in assay [2] and in assay [3] was Active. In assay [5], the inhibition entry was “Dose-dependent effect”. Moreover, the inhibition result in assay [6] is “inactive”.

With `Cc1ccc(-c2ccc(C=C3C(=O)NC(=S)NC3=O)o2)c(Br)c1`, the inhibition result in assay [1], in assay [4] and in assay [7] was “Active” in each case. Moreover, the result in assay [2] and in assay [3] was Active. The inhibition result in assay [5] is “Dose-dependent effect”. Further, in assay [6], the inhibition entry is “inactive”.

As for `COc1ccc(/C=C2\SC(=S)N(c3ccc([N+](=O)[O-])cc3)C2=O)cc1O`, the inhibition result in assay [1], in assay [4] and in assay [7] was “Active” in each case. In addition, the result in assay [2] and in assay [3] was Active. Further, in assay [5], the inhibition result was “Dose-dependent effect”. In assay [6], the inhibition entry is “inactive”.

Take `O=C1/C(=C/c2ccc(O)c([N+](=O)[O-])c2)SC(=S)N1c1cccc(C(F)(F)F)c1`: the inhibition result in assay [1], in assay [4] and in assay [7] was “Active” throughout. Moreover, the outcome in assay [2] and in assay [3] was Active. The inhibition entry in assay [5] was “Dose-dependent effect”. The inhibition result in assay [6] is “inactive”.

With `O=C1NC(=S)N(c2ccccc2)C(=O)/C1=C/c1cccn1-c1ccc(Cl)cc1`, the inhibition result in assay [1], in assay [4] and in assay [7] was “Active” in each case. Further, the result in assay [2] and in assay [3] was Active. Also, the inhibition result in assay [5] is “Dose-dependent effect”. Also, the inhibition entry in assay [6] is “inactive”.

For `O=C1NC(=S)N(c2ccccc2)C(=O)/C1=C/c1ccc(-c2ccc(F)cc2)o1`, the inhibition result in assay [1], in assay [4] and in assay [7] was “Active” each time. Moreover, the result in assay [2] and in assay [3] was Active. Moreover, the inhibition result in assay [5] is “Dose-dependent effect”. The inhibition entry in assay [6] was “inactive”.

`O=C1NC(=O)N(c2ccc(I)cc2)C(=O)/C1=C/c1cnn(-c2ccccc2)c1`: the inhibition result in assay [1], in assay [4] and in assay [7] was “Active” each time. Also, the outcome in assay [2] and in assay [3] was Active. For the same molecule, the inhibition entry in assay [5] is “Dose-dependent effect”. In assay [6], the inhibition result is “inactive”.

Turning to `O=C1NC(=S)N(c2ccccc2F)C(=O)/C1=C/c1cccn1-c1ccc(Br)cc1`, the inhibition result in assay [1], in assay [4] and in assay [7] was “Active” each time. Moreover, the result in assay [2] and in assay [3] was Active. Further, the inhibition entry in assay [5] is “Dose-dependent effect”. For the same molecule, the inhibition result in assay [6] was “inactive”.

For the molecule `O=C(O)c1cccc(N2N=C(C(F)(F)F)/C(=C/c3ccc(-c4ccc(S(=O)(=O)Nc5nccs5)cc4)o3)C2=O)c1`, the inhibition entry in assay [4] and in assay [7] was “Active” each time. Moreover, in assay [5], the inhibition entry is “Dose-dependent effect”. Moreover, the inhibition result in assay [6] was “inactive”.

`O=C1/C(=C/c2cc([N+](=O)[O-])cc(Br)c2O)SC(=S)N1c1ccc([N+](=O)[O-])cc1`: the inhibition entry in assay [4] and in assay [7] was “Active” throughout. The inhibition result in assay [5] was “Dose-dependent effect”. In assay [6], the inhibition entry was “inactive”.

With `O=C1NC(=S)N(c2ccc(Cl)cc2)C(=O)/C1=C\c1ccc(-c2ccccc2C(=O)O)o1`, the inhibition result in assay [4] and in assay [7] was “Active” in each case. Besides, in assay [5], the inhibition result was “Dose-dependent effect”. For the same molecule, in assay [6], the inhibition result was “inactive”.

Consider `N#CC1=C(N)C(C#N)(C#N)C(c2ccc(OCc3ccc(Cl)cc3)c([N+](=O)[O-])c2)C2CCCC=C12` (stereo not drawn), for which the inhibition result in assay [4] and in assay [7] was “Active” each time. In assay [5], the inhibition entry is “Dose-dependent effect”. The inhibition result in assay [6] is “inactive”.

Consider `O=C1/C(=C/c2ccc(O)c(O)c2)SC(=S)N1c1ccc([N+](=O)[O-])cc1`, for which the inhibition result in assay [4] and in assay [7] was “Active” in each case. For the same molecule, the inhibition entry in assay [5] is “Dose-dependent effect”. Further, the inhibition result in assay [6] was “inactive”.

As for `O=C1NC(=O)N(c2ccc(Cl)cc2)C(=O)/C1=C/c1cccn1-c1ccccc1`, the inhibition result in assay [4] and in assay [7] was “Active” throughout. In addition, the inhibition result in assay [5] was “Dose-dependent effect”. The inhibition result in assay [6] was “inactive”.

Take `Nc1nc(SCc2nnc(Nc3ccccc3)s2)nc2sc3c(c12)CCC3`: the inhibition result in assay [4] and in assay [7] was “Active” each time. Moreover, the inhibition result in assay [5] was “Dose-dependent effect”. For the same molecule, the inhibition entry in assay [6] is “inactive”.

Turning to `O=C1C=Cc2ccccc2/C1=C/NNC(=O)C(O)(c1ccccc1)c1ccccc1`, the inhibition entry in assay [4] and in assay [7] was “Active” each time. In assay [5], the inhibition result was “Dose-dependent effect”. In assay [6], the inhibition result is “inactive”.

`C=C[S+]([O-])c1sc(Cl)c(N2CCN(c3c(Cl)sc([S+]([O-])C=C)c3[N+](=O)[O-])CC2)c1[N+](=O)[O-]` (stereo not drawn): the inhibition entry in assay [4] and in assay [7] was “Active” each time. Moreover, the inhibition entry in assay [5] was “Dose-dependent effect”. For the same molecule, in assay [6], the inhibition entry is “inactive”.

As to `O=C1/C(=C/c2ccc(-c3ccc(Cl)cc3)o2)SC(=S)N1Cc1ccco1`, the inhibition result in assay [4] and in assay [7] was “Active” throughout. Further, in assay [5], the inhibition result was “Dose-dependent effect”. Moreover, the inhibition result in assay [6] was “inactive”.

As to `CC1=NN(c2ccc(S(N)(=O)=O)cc2)C(=O)/C1=C/c1ccc(-c2ccc(C)cc2[N+](=O)[O-])o1`, the inhibition entry in assay [4] and in assay [7] was “Active” each time. Besides, in assay [5], the inhibition result is “Dose-dependent effect”. Besides, the inhibition entry in assay [6] is “inactive”.

With `COc1cc(-c2ccc(/C=C/c3[nH]c(=O)[nH]c(=O)c3[N+](=O)[O-])o2)c(OC)cc1Cl`, the inhibition result in assay [4] and in assay [7] was “Active” in each case. Also, in assay [5], the inhibition entry is “Dose-dependent effect”. For the same molecule, the inhibition result in assay [6] was “inactive”.
